Results: PMC7898037, “Improving mitochondria and ER stability helps eliminate upper motor neuron degeneration that occurs due to mSOD1 toxicity and TDP‐43 pathology” (Clinical and Translational Medicine, 2021)

Assays:
Weight of the mice = type: in vivo; set-up: Mean Diff. of weight, vehicle vs. NU-9: unit not given here; conditions: for Mean weight (Mean 2): hSOD1G93A-UeGFP mice, in g (unit assumed); for Weight, Average: hSOD1G93A-UeGFP
Procedure: hSOD1^G93A‐UeGFP, prpTDP‐43^A315T‐UeGFP and WT‐UeGFP mice were weighed and the required NU‐9 dose per weight was calculated (20 or 100 mg/kg), which was administered once daily by oral gavage, starting at postnatal day (P)60 and continuing until P120. Animals from the untreated group received the vehicle (NMP and olive oil) only. For oral administration purposes, 20 ga × 38 mm plastic feeding tubes were used (Instech Laboratories, Inc). The gavage tip was inserted into the mouth directly over the tongue and into the pharynx. While observing the swallowing reflex, the tip was safely and smoothly slid into the esophagus. Once the administration was completed, the gavage tip was pulled straight out.
Behavior data were collected from hSOD1^G93A‐UeGFP and WT‐UeGFP mice (starting at P60 and every 7 days until P116) and from prpTDP‐43^A315T‐UeGFP mice (at P60, P90, and P120) with the following number of mice for each group: WT‐UeGFP vehicle (n = 10), hSOD1^G93A‐UeGFP vehicle (n = 6), WT‐UeGFP 20 mg/kg/day NU‐9 (n = 5), hSOD1^G93A‐UeGFP 20 mg/kg/day NU‐9 (n = 7), WT‐UeGFP 100 mg/kg/day NU‐9 (n = 11), hSOD1^G93A‐UeGFP 100 mg/kg/day NU‐9 (n = 9), prpTDP‐43^A315T‐UeGFP untreated (n ≥ 3), and prpTDP‐43^A315T‐UeGFP 100 mg/kg/day NU‐9 (n = 4) (Table S3).

cytochrome P450s = conditions: cited from earlier work

With `C[C@H](Oc1cc(C(F)(F)F)cc(C(F)(F)F)c1)C1CC(=O)CC(=O)C1` [NU‐9] the “Mean Diff. of weight, vehicle vs. NU-9” value (Weight of the mice; hSOD1G93A-UeGFP (vehicle) vs. hSOD1G93A-UeGFP (NU-9 20 mg/kg/day), P60, Tukey's multiple comparisons test) was 0.6667, the “Mean Diff. of weight, vehicle vs. NU-9” value (Weight of the mice; hSOD1G93A-UeGFP (vehicle) vs. hSOD1G93A-UeGFP (NU-9 20 mg/kg/day), P67, Tukey's multiple comparisons test) was 0.6429 and the “Mean Diff. of weight, vehicle vs. NU-9” value (Weight of the mice; hSOD1G93A-UeGFP (vehicle) vs. hSOD1G93A-UeGFP (NU-9 20 mg/kg/day), P74, Tukey's multiple comparisons test) was 0.2381. For the same compound, the “Mean Diff. of weight, vehicle vs. NU-9” value (Weight of the mice; hSOD1G93A-UeGFP (vehicle) vs. hSOD1G93A-UeGFP (NU-9 20 mg/kg/day), P81, Tukey's multiple comparisons test) was 0.5952, the “Mean Diff. of weight, vehicle vs. NU-9” value (Weight of the mice; hSOD1G93A-UeGFP (vehicle) vs. hSOD1G93A-UeGFP (NU-9 20 mg/kg/day), P88, Tukey's multiple comparisons test) was 0.2857 and the “Mean Diff. of weight, vehicle vs. NU-9” value (Weight of the mice; hSOD1G93A-UeGFP (vehicle) vs. hSOD1G93A-UeGFP (NU-9 20 mg/kg/day), P95, Tukey's multiple comparisons test) was 0.7619. The “Mean Diff. of weight, vehicle vs. NU-9” value (Weight of the mice; hSOD1G93A-UeGFP (vehicle) vs. hSOD1G93A-UeGFP (NU-9 20 mg/kg/day), P102, Tukey's multiple comparisons test) was 0.5714, the “Mean Diff. of weight, vehicle vs. NU-9” value (Weight of the mice; hSOD1G93A-UeGFP (vehicle) vs. hSOD1G93A-UeGFP (NU-9 20 mg/kg/day), P109, Tukey's multiple comparisons test) was 0.4762 and the “Mean Diff. of weight, vehicle vs. NU-9” value (Weight of the mice; hSOD1G93A-UeGFP (vehicle) vs. hSOD1G93A-UeGFP (NU-9 20 mg/kg/day), P116, Tukey's multiple comparisons test) was -0.1429. For the same compound, the “Mean Diff. of weight, vehicle vs. NU-9” value (Weight of the mice; hSOD1G93A-UeGFP (vehicle) vs. hSOD1G93A-UeGFP (NU-9 100 mg/kg/day), P60, Tukey's multiple comparisons test) was 1.222, the “Mean Diff. of weight, vehicle vs. NU-9” value (Weight of the mice; hSOD1G93A-UeGFP (vehicle) vs. hSOD1G93A-UeGFP (NU-9 100 mg/kg/day), P67, Tukey's multiple comparisons test) was 1.167 and the “Mean Diff. of weight, vehicle vs. NU-9” value (Weight of the mice; hSOD1G93A-UeGFP (vehicle) vs. hSOD1G93A-UeGFP (NU-9 100 mg/kg/day), P74, Tukey's multiple comparisons test) was 0.2222. The “Mean Diff. of weight, vehicle vs. NU-9” value (Weight of the mice; hSOD1G93A-UeGFP (vehicle) vs. hSOD1G93A-UeGFP (NU-9 100 mg/kg/day), P81, Tukey's multiple comparisons test) was 0.7222, the “Mean Diff. of weight, vehicle vs. NU-9” value (Weight of the mice; hSOD1G93A-UeGFP (vehicle) vs. hSOD1G93A-UeGFP (NU-9 100 mg/kg/day), P88, Tukey's multiple comparisons test) was 0.1111 and the “Mean Diff. of weight, vehicle vs. NU-9” value (Weight of the mice; hSOD1G93A-UeGFP (vehicle) vs. hSOD1G93A-UeGFP (NU-9 100 mg/kg/day), P95, Tukey's multiple comparisons test) was 0.1111. The “Mean Diff. of weight, vehicle vs. NU-9” value (Weight of the mice; hSOD1G93A-UeGFP (vehicle) vs. hSOD1G93A-UeGFP (NU-9 100 mg/kg/day), P102, Tukey's multiple comparisons test) was 0, the “Mean Diff. of weight, vehicle vs. NU-9” value (Weight of the mice; hSOD1G93A-UeGFP (vehicle) vs. hSOD1G93A-UeGFP (NU-9 100 mg/kg/day), P109, Tukey's multiple comparisons test) was 0.5556 and the “Mean Diff. of weight, vehicle vs. NU-9” value (Weight of the mice; hSOD1G93A-UeGFP (vehicle) vs. hSOD1G93A-UeGFP (NU-9 100 mg/kg/day), P116, Tukey's multiple comparisons test) was 0.1111. The “Mean weight (Mean 2)” value (Weight of the mice; NU-9 20 mg/kg/day, P60) was 17, the “Mean weight (Mean 2)” value (Weight of the mice; NU-9 20 mg/kg/day, P67) was 16.86 and the “Mean weight (Mean 2)” value (Weight of the mice; NU-9 20 mg/kg/day, P74) was 16.43. For the same compound, the “Mean weight (Mean 2)” value (Weight of the mice; NU-9 20 mg/kg/day, P81) was 16.57, the “Mean weight (Mean 2)” value (Weight of the mice; NU-9 20 mg/kg/day, P88) was 16.71 and the “Mean weight (Mean 2)” value (Weight of the mice; NU-9 20 mg/kg/day, P95) was 16.57. For the same compound, the “Mean weight (Mean 2)” value (Weight of the mice; NU-9 100 mg/kg/day, P60) was 16.44, the “Mean weight (Mean 2)” value (Weight of the mice; NU-9 100 mg/kg/day, P67) was 16.33 and the “Mean weight (Mean 2)” value (Weight of the mice; NU-9 100 mg/kg/day, P74) was 16.44. The “Mean weight (Mean 2)” value (Weight of the mice; NU-9 100 mg/kg/day, P81) was 16.44, the “Mean weight (Mean 2)” value (Weight of the mice; NU-9 100 mg/kg/day, P88) was 16.89 and the “Mean weight (Mean 2)” value (Weight of the mice; NU-9 100 mg/kg/day, P95) was 17.22. The “Weight, Average” value (Weight of the mice; NU-9 20 mg/kg/day po, P60) was 17 g, the “Weight, Average” value (Weight of the mice; NU-9 20 mg/kg/day po, P67) was 16.8571 g and the “Weight, Average” value (Weight of the mice; NU-9 20 mg/kg/day po, P74) was 16.4286 g. The “Weight, Average” value (Weight of the mice; NU-9 20 mg/kg/day po, P81) was 16.5714 g, the “Weight, Average” value (Weight of the mice; NU-9 20 mg/kg/day po, P88) was 16.7143 g and the “Weight, Average” value (Weight of the mice; NU-9 20 mg/kg/day po, P95) was 16.5714 g. The “Weight, Average” value (Weight of the mice; NU-9 20 mg/kg/day po, P102) was 16.4286 g, the “Weight, Average” value (Weight of the mice; NU-9 20 mg/kg/day po, P109) was 16.8571 g and the “Weight, Average” value (Weight of the mice; NU-9 20 mg/kg/day po, P116) was 17.1429 g. For the same compound, the “Weight, Average” value (Weight of the mice; NU-9 100 mg/kg/day po, P60) was 16.4444 g, the “Weight, Average” value (Weight of the mice; NU-9 100 mg/kg/day po, P67) was 16.3333 g and the “Weight, Average” value (Weight of the mice; NU-9 100 mg/kg/day po, P74) was 16.4444 g. For the same compound, the “Weight, Average” value (Weight of the mice; NU-9 100 mg/kg/day po, P81) was 16.4444 g, the “Weight, Average” value (Weight of the mice; NU-9 100 mg/kg/day po, P88) was 16.8889 g and the “Weight, Average” value (Weight of the mice; NU-9 100 mg/kg/day po, P95) was 17.2222 g. For the same compound, the “Weight, Average” value (Weight of the mice; NU-9 100 mg/kg/day po, P102) was 17 g, the “Weight, Average” value (Weight of the mice; NU-9 100 mg/kg/day po, P109) was 16.7778 g and the “Weight, Average” value (Weight of the mice; NU-9 100 mg/kg/day po, P116) was 16.8889 g. For the same compound, the CYP inhibition (cytochrome P450s; 5 CYPs, at 3 µM) was 5 CYPs; <10% at 3 µM and the “inhibition of cytochrome P450s” value (cytochrome P450s) was “little inhibition”.
